What was measured:
[1] = molecular target: B-Raf V600E (Homo sapiens, UniProt P15056, V600E); assay: Kinase activity assay, B-Raf V600E; type: biochemical; settings: read-out: activity toward kinase B-Raf V600E, IC50
[2] = molecular target: B-Raf (Homo sapiens, UniProt P15056); assay: Kinase activity assay, B-Raf; type: biochemical; settings: read-out: activity toward kinase B-Raf, IC50
[3] = molecular target: C-Raf (Homo sapiens, UniProt P04049); assay: Kinase activity assay, C-Raf
[4] = molecular target: Src (Homo sapiens, UniProt P12931); assay: Kinase activity assay, Src
[5] = molecular target: T1, A-Raf (Homo sapiens, UniProt P10398); assay: Kinase activity assay, A-Raf
T1 sequence (P10398 1-606): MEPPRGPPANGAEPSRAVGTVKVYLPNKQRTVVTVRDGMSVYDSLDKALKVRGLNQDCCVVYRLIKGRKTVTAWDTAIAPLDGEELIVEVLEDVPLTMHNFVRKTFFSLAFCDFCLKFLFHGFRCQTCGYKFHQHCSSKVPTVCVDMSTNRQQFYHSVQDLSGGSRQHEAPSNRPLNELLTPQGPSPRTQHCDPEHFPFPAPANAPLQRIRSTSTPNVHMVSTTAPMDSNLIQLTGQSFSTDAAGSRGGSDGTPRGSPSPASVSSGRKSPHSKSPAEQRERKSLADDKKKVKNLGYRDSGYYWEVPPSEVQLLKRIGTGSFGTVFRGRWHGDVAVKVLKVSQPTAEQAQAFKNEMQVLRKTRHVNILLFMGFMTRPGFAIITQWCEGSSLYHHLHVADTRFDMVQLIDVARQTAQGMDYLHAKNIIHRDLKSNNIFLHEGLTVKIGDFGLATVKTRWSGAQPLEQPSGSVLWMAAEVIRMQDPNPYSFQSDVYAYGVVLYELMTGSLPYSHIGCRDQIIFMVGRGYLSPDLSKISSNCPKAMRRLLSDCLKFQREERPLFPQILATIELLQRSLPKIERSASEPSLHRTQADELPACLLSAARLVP

[6] = molecular target: MAP4K4 (Homo sapiens, UniProt O95819); assay: Kinase activity assay, MAP4K4
[7] = molecular target: Kit (Homo sapiens, UniProt P10721); assay: Kinase activity assay, Kit
Kit, sequence (P10721 26-976): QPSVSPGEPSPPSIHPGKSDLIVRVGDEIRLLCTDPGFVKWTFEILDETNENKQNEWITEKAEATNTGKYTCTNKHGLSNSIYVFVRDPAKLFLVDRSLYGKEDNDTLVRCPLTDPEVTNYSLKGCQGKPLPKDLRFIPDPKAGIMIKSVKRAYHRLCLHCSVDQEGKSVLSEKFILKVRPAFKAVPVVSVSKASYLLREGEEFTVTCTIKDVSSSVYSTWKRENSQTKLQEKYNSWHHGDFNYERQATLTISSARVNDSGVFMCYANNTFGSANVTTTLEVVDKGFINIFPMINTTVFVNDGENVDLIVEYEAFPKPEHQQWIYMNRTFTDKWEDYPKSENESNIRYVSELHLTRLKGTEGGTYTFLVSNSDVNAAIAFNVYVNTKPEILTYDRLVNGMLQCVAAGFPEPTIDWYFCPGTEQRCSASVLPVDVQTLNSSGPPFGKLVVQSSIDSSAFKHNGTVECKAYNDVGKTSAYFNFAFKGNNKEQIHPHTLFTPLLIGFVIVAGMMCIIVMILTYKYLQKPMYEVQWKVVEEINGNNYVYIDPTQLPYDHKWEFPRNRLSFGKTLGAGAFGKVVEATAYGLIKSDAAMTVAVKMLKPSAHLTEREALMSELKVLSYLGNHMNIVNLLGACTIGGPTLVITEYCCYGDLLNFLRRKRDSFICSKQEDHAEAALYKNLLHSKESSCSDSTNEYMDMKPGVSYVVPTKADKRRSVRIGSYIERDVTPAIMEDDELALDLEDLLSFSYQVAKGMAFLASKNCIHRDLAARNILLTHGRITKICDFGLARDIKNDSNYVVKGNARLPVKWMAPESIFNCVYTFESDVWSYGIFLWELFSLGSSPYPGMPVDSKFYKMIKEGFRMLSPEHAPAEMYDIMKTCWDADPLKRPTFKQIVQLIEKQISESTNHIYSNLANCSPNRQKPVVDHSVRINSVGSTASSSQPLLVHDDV

[8] = molecular target: T2, TEC (Homo sapiens, UniProt P42680); assay: Kinase activity assay, TEC
T2 sequence (P42680 1-631): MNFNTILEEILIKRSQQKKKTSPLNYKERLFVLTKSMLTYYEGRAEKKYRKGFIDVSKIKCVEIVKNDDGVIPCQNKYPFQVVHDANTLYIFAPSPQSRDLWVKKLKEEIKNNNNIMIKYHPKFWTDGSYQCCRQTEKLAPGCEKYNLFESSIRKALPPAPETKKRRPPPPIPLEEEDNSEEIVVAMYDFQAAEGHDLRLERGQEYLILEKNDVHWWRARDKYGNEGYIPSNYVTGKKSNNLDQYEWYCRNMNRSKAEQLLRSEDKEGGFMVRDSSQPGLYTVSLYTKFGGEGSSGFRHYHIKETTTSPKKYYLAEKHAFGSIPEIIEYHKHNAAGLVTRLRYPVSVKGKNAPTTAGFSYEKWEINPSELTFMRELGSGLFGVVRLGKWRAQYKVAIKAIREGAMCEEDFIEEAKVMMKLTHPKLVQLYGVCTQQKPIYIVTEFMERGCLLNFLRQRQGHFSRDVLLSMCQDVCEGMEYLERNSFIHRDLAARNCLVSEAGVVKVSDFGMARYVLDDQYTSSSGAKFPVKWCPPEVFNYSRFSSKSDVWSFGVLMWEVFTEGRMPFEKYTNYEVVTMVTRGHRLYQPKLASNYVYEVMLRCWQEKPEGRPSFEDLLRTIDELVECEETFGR

[9] = molecular target: Kdr (Homo sapiens, UniProt P35968); assay: Kinase activity assay, Kdr
[10] = molecular target: Fms (Homo sapiens, UniProt P07333); assay: Kinase activity assay, Fms
Fms, sequence (P07333 20-972): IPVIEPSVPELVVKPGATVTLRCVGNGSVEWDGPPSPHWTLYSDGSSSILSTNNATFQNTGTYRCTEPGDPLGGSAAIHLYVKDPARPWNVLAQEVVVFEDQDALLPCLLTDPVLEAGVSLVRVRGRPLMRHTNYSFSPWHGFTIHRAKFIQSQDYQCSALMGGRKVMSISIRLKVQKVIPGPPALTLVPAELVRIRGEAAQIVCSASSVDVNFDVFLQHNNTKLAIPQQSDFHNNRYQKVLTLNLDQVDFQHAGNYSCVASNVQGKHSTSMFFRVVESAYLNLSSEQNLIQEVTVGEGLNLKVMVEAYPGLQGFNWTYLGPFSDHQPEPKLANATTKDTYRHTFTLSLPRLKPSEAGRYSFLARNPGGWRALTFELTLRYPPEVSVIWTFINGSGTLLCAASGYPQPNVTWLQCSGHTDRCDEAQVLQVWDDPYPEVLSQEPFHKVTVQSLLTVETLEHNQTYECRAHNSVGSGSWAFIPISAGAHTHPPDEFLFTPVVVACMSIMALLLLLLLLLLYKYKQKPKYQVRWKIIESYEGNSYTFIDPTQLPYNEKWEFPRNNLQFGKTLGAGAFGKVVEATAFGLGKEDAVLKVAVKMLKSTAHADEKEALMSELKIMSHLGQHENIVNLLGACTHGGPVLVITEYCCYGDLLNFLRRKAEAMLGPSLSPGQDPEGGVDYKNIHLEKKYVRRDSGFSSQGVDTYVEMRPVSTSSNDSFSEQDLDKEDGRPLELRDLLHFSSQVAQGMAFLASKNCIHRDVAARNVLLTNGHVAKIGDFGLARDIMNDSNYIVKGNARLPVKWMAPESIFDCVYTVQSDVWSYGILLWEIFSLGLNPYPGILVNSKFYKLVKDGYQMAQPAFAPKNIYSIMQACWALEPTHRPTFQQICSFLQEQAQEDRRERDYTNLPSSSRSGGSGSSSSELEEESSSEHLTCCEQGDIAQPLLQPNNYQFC

[11] = molecular target: Btk (Homo sapiens, UniProt Q06187); assay: Kinase activity assay, Btk
Btk, sequence (Q06187 whole entry): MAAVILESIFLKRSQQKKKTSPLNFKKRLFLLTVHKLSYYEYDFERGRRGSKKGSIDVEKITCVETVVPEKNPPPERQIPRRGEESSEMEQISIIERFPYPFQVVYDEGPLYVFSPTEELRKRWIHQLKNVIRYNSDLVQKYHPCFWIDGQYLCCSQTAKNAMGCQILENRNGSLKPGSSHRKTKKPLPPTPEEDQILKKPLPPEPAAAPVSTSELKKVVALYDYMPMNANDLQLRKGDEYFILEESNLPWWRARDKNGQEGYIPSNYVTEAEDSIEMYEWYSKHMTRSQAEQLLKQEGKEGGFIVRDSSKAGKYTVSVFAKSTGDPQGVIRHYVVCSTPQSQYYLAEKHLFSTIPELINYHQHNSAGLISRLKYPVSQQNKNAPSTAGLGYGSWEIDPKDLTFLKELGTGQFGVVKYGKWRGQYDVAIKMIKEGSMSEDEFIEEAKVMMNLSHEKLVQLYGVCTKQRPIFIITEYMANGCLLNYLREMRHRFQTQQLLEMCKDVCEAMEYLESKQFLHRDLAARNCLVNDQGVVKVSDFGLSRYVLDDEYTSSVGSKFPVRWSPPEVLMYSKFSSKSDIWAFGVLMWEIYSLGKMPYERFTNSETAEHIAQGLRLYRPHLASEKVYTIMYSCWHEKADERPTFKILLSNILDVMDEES

[12] = molecular target: PI3Kα (Homo sapiens, UniProt P42336); assay: Kinase activity assay, PI3Kα
PI3Kα, sequence (P42336 whole entry): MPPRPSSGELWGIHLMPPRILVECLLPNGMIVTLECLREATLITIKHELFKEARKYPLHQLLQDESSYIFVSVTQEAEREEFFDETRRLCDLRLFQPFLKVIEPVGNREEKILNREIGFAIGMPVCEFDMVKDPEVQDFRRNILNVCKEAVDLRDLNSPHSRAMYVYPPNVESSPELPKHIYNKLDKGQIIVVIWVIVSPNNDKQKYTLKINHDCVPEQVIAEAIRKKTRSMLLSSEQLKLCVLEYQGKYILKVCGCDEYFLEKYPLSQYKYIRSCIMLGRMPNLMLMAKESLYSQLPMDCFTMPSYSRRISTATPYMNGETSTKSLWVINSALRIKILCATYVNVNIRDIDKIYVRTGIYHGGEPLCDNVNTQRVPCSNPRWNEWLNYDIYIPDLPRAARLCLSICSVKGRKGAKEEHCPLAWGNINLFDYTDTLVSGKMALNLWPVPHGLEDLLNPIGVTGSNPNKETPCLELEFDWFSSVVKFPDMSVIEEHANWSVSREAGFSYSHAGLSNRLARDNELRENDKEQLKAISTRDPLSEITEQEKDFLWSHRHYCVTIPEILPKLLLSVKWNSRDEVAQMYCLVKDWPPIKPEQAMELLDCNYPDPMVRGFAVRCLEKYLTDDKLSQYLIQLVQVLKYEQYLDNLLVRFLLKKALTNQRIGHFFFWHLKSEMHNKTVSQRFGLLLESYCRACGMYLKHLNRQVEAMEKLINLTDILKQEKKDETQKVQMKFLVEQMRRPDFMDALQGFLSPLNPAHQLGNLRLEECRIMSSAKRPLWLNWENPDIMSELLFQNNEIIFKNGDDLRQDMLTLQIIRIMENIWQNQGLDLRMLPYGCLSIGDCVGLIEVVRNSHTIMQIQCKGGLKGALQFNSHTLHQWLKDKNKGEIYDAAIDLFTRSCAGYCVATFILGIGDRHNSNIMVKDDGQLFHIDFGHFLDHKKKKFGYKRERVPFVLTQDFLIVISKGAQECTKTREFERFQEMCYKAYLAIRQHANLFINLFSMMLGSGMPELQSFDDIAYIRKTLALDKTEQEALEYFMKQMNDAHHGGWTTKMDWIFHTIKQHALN
PI3Kα, sequence (P27986 whole entry partner): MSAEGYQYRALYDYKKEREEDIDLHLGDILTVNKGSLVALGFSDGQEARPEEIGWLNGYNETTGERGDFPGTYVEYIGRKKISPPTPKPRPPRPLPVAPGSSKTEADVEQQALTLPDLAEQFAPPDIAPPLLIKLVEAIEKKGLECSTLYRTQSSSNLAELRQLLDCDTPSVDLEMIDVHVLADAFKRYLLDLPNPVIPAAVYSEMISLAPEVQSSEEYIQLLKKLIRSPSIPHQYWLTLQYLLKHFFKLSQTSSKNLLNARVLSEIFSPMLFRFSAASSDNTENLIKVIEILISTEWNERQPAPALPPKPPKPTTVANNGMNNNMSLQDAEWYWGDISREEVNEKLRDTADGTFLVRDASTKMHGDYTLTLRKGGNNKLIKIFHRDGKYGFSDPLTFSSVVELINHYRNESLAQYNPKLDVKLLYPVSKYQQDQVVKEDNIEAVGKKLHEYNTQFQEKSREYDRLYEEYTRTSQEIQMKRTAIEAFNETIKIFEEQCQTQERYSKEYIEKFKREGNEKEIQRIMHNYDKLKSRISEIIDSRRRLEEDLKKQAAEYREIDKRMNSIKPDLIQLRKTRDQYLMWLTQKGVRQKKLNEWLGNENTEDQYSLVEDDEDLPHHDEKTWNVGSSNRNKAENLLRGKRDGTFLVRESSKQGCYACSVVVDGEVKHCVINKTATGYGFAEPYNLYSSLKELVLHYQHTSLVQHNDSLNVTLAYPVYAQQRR

Measured: IC50

C-Raf, sequence (P04049 whole entry): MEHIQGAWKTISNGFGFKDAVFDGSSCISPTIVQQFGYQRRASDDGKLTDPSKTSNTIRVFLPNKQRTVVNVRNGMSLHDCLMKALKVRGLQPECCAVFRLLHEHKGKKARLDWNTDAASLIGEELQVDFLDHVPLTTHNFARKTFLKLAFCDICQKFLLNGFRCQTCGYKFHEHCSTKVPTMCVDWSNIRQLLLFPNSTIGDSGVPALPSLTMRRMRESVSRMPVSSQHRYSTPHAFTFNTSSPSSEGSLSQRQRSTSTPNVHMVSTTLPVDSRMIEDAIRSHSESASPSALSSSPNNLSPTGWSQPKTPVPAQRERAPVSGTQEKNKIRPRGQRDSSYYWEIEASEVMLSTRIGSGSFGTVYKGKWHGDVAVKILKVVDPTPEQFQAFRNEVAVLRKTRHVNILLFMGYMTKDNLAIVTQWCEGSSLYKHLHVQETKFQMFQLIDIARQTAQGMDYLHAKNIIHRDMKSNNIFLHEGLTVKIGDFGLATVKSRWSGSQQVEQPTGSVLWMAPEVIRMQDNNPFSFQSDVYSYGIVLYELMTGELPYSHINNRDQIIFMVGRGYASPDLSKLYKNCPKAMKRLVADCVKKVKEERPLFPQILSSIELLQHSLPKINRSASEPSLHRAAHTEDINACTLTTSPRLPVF

COc1ccnc2[nH]cc(C(=O)c3c(F)ccc(NS(=O)(=O)c4cc(F)ccc4F)c3F)c12 [P-2022, N-[2,4-Difluoro-3-(4-methoxy-1H-pyrrolo[2,3-b]pyridine-3-carbonyl)-phenyl]-2,5-difluoro-benzenesulfonamide]
not listed: [12]
≤ 10 µM: all other assays above

COc1ncc(-c2cnc3[nH]cc(C(=O)c4c(F)ccc(NS(=O)(=O)c5ccc(F)cc5)c4F)c3c2)cn1 [P-2040, N-{2,4-Difluoro-3-[5-(2-methoxy-pyrimidin-5-yl)-1H-pyrrolo[2,3-b]pyridine-3-carbonyl]-phenyl}-4-fluoro-benzenesulfonamide]
≤ 10 µM: [1] | [2] | [3] | [4] | [12] | [8]

CS(=O)(=O)c1cccc(-c2cnc3[nH]cc(C(=O)c4cccc(NS(=O)(=O)c5cccnc5)c4)c3c2)c1 [P-2149, Pyridine-3-sulfonic acid {3-[5-(3-methanesulfonyl-phenyl)-1H-pyrrolo[2,3-b]pyridine-3-carbonyl]-phenyl}-amide]
≤ 10 µM: [2] | [4] | [12] | [6] | [7] | [9] | [10]

CCCS(=O)(=O)Nc1ccc(F)c(C(=O)c2c[nH]c3ncc(-c4ccc(O)nc4)cc23)c1F [P-2234, Propane-1-sulfonic acid {2,4-difluoro-3-[5-(6-hydroxy-pyridin-3-yl)-1H-pyrrolo[2,3-b]pyridine-3-carbonyl]-phenyl}-amide]
not listed: [8] | [11]
≤ 10 µM: all other assays above

C#Cc1cnc2[nH]cc(C(=O)c3c(F)ccc(NS(=O)(=O)CCC)c3F)c2c1 [P-2260, Propane-1-sulfonic acid [3-(5-ethynyl-1H-pyrrolo[2,3-b]pyridine-3-carbonyl)-2,4-difluoro-phenyl]-amide]
not listed: [6] | [12]
≤ 10 µM: all other assays above

COc1ncc(-c2cnc3[nH]cc(C(=O)c4c(F)ccc(NS(=O)(=O)CCC(F)(F)F)c4F)c3c2)cn1 [P-2333]
not listed: [5] | [6] | [10] | [11]
≤ 10 µM: all other assays above

COc1ncc(-c2cnc3[nH]cc(C(=O)c4c(F)ccc(NS(=O)(=O)CC(F)(F)F)c4F)c3c2)cn1 [P-2342, 2,2,2-Trifluoro-ethanesulfonic acid {2,4-difluoro-3-[5-(2-methoxy-pyrimidin-5-yl)-1H-pyrrolo[2,3-b]pyridine-3-carbonyl]-phenyl}-amide]
≤ 10 µM: [1] | [2] | [3] | [4] | [12] | [8]

COc1ncc(-c2cnc3[nH]cc(C(=O)c4c(F)ccc(NS(=O)(=O)C5CCC5)c4F)c3c2)cn1 [P-2373, Cyclobutanesulfonic acid {2,4-difluoro-3-[5-(2-methoxy-pyrimidin-5-yl)-1H-pyrrolo[2,3-b]pyridine-3-carbonyl]-phenyl}-amide]
≤ 10 µM: [1] | [2] | [3] | [4] | [12] | [8] | [9]

Cc1cnc2[nH]cc(C(=O)c3c(F)ccc(NS(=O)(=O)N4CCCC4)c3F)c2c1 [P-2379, Pyrrolidine-1-sulfonic acid [2,4-difluoro-3-(5-methyl-1H-pyrrolo[2,3-b]pyridine-3-carbonyl)-phenyl]-amide]
not listed: [6] | [10] | [12]
≤ 10 µM: all other assays above

N#Cc1ccnc2[nH]cc(C(=O)c3c(F)ccc(NS(=O)(=O)N4CCCC4)c3F)c12 [P-2394, Pyrrolidine-1-sulfonic acid [3-(4-cyano-1H-pyrrolo[2,3-b]pyridine-3-carbonyl)-2,4-difluoro-phenyl]-amide]
not listed: [6] | [7] | [10] | [12]
≤ 10 µM: all other assays above

CS(=O)(=O)c1cccc(-c2cnc3[nH]cc(C(=O)c4cc(NS(=O)(=O)C5CCCCC5)ccc4F)c3c2)c1 [P-2444, Cyclohexanesulfonic acid {4-fluoro-3-[5-(3-methanesulfonyl-phenyl)-1H-pyrrolo[2,3-b]pyridine-3-carbonyl]-phenyl}-amide]
not listed: [5] | [12]
≤ 10 µM: all other assays above

CS(=O)(=O)Nc1cccc(-c2cnc3[nH]cc(C(=O)c4cc(NS(=O)(=O)C5CCCC5)ccc4F)c3c2)c1 [P-2447, Cyclopentanesulfonic acid {4-fluoro-3-[5-(3-methanesulfonylamino-phenyl)-1H-pyrrolo[2,3-b]pyridine-3-carbonyl]-phenyl}-amide]
not listed: [5] | [12]
≤ 10 µM: all other assays above
